Among the data in US11771738B2 (Zoetis Services LLC, priority 2018, dated 2023) are minimal effective concentration and DiMf/DiL4 values, retold here.

Holding throughout (type): cell-based
One experiment deals with D. immitis L4 larvae. In words: Dirofilaria immitis, L4 Stage (DiL4) In Vitro Assay. The settings on record: for minimal effective concentration: Dirofilaria immitis, 72 h, read-out: DiL4 MED, Minimum Effective Dose, D. immitis L4 larvae motility, in vitro; for DiMf/DiL4: larval stage selectivity, ratio of DiMf MED to DiL4 MED.
The subject of experiment [1] is microfilariae of Dirofilaria immitis. In words: Dirofilaria immitis, Microfilaria (DiMf) In Vitro Assay. The conditions noted are these: Dirofilaria immitis, 72 h, read-out: DiMf MED, Minimum Effective Dose, D. immitis microfilariae motility, in vitro.
Experiment [2] concerns third stage larvae of Haemonchus contortus. In words: Haemonchus contortus, Larvae Stage 3 (HcL3) In Vitro Assay. The conditions noted are these: Haemonchus contortus, 96 h.
The mark [3] stands for this setting: read-out: HcL3 MED, Haemonchus contortus third stage larvae in vitro, class mark appended to the Ex # in Table 3.
Where [4] appears, read: read-out: HcL3 MED, Minimum Effective Dose, H. contortus third stage larvae, approximately 96 hours.
Where [5] appears, read: read-out: HcL3 MED, approximately 96 hours incubation, multiple-resistant field isolate.

The structures appear in SMILES notation. Where two headings read alike, the source gives them in different places.

Consider `CC(C)C[C@H]1C(=O)O[C@H](Cc2ccc(Cc3cncnc3C(C)C)cc2)C(=O)N(C)[C@@H](CC(C)C)C(=O)O[C@H](C)C(=O)N(C)[C@@H](CC(C)C)C(=O)O[C@H](Cc2ccc(Cc3cncnc3C(C)C)cc2)C(=O)N(C)[C@@H](CC(C)C)C(=O)O[C@H](C)C(=O)N1C` [Example 3-283, (3S,6R,9S,12R,15S,18R,21S,24R)-3,9,15,21-tetraisobutyl-6,18-bis(4-((4-isopropylpyrimidin-5-yl)methyl)benzyl)-4,10,12,16,22,24-hexamethyl-1,7,13,19-tetraoxa-4,10,16,22-tetraazacyclotetracosan-2,5,8,11,14,17,20,23-octaone], for which the minimal effective concentration was 0.0005 µM in the experiment on D. immitis L4 larvae; 0.003 µM in experiment [1]; less than 1 µM in experiment [2] (setting [3]); 1 µM in experiment [2] (setting [4]); no more than 1 µM in experiment [2] (setting [5]). Besides, the DiMf/DiL4 in the experiment with D. immitis L4 larvae was determined as 6.
For the compound `CC(C)C[C@H]1C(=O)O[C@H](Cc2ccc(Cc3cnccc3C(F)F)cc2)C(=O)N(C)[C@@H](CC(C)C)C(=O)O[C@H](C)C(=O)N(C)[C@@H](CC(C)C)C(=O)O[C@H](Cc2ccc(Cc3cnccc3C(F)F)cc2)C(=O)N(C)[C@@H](CC(C)C)C(=O)O[C@H](C)C(=O)N1C` [Example 3-295, (3S,6R,9S,12R,15S,18R,21S,24R)-6,18-bis(4-((4-(difluoromethyl)pyridin-3-yl)methyl)benzyl)-3,9,15,21-tetraisobutyl-4,10,12,16,22,24-hexamethyl-1,7,13,19-tetraoxa-4,10,16,22-tetraazacyclotetracosan-2,5,8,11,14,17,20,23-octaone], the minimal effective concentration in the experiment on D. immitis L4 larvae is 0.0003 µM; in experiment [1], 0.005 µM; in experiment [2] (setting [3]), 1 to 3.3 µM; in experiment [2] (setting [4]), 1.8 µM. In addition, the DiMf/DiL4 with D. immitis L4 larvae is 16.7.
As to `CC(C)C[C@H]1C(=O)O[C@H](Cc2ccc(Cc3ccnn3C)cc2)C(=O)N(C)[C@@H](CC(C)C)C(=O)O[C@H](C)C(=O)N(C)[C@@H](CC(C)C)C(=O)O[C@H](Cc2ccccc2)C(=O)N(C)[C@@H](CC(C)C)C(=O)O[C@H](C)C(=O)N1C` [Example 4-63, (3S,6R,9S,12R,15S,18R,21S,24R)-6-benzyl-3,9,15,21-tetraisobutyl-4,10,12,16,22,24-hexamethyl-18-(4-((1-methyl-1H-pyrazol-5-yl)methyl)benzyl)-1,7,13,19-tetraoxa-4,10,16,22-tetraazacyclotetracosan-2,5,8,11,14,17,20,23-octaone], the minimal effective concentration in the experiment on D. immitis L4 larvae is 0.001 µM; in experiment [1], 0.001 µM; in experiment [2] (read-out: HcL3 MED (symbol after Ex#), approximately 96 hours incubation, multiple-resistant field isolate) it was less than 1 µM; in experiment [2] (setting [4]), 1 µM; in experiment [2] (setting [5]), no more than 1 µM. Further, the DiMf/DiL4 in the experiment on D. immitis L4 larvae is given as 1.
On to `CC(C)C[C@H]1C(=O)O[C@H](Cc2ccc(Cc3occc3C#N)cc2)C(=O)N(C)[C@@H](CC(C)C)C(=O)O[C@H](C)C(=O)N(C)[C@@H](CC(C)C)C(=O)O[C@H](Cc2ccc(Cc3occc3C#N)cc2)C(=O)N(C)[C@@H](CC(C)C)C(=O)O[C@H](C)C(=O)N1C` [Example 3-50, 2,2′-(((((2R,5S,8R,11 S,14R,17S,20R,23S)-5,11,17,23-tetraisobutyl-4,8,10,16,20,22-hexamethyl-3,6,9,12,15,18,21,24-octaoxo-1,7,13,19-tetraoxa-4,10,16,22-tetraazacyclotetracosane-2,14-diyl)bis(methylene))bis(4,1-phenylene))bis(methylene))bis(furan-3-carbonitrile)], for which the minimal effective concentration was 0.0001 µM in the experiment with D. immitis L4 larvae; 0.001 µM in experiment [1]; less than 1 µM in experiment [2] (setting [3]); 0.3 µM in experiment [2] (setting [4]); no more than 1 µM in experiment [2] (setting [5]). The DiMf/DiL4 with D. immitis L4 larvae came to 10.
As for `CC(C)C[C@H]1C(=O)O[C@H](Cc2ccc(Cc3cocn3)cc2)C(=O)N(C)[C@@H](CC(C)C)C(=O)O[C@H](C)C(=O)N(C)[C@@H](CC(C)C)C(=O)O[C@H](Cc2ccc(Cc3cocn3)cc2)C(=O)N(C)[C@@H](CC(C)C)C(=O)O[C@H](C)C(=O)N1C` [Example 3-57, (3S,6R,9S,12R,15S,18R,21S,24R)-3,9,15,21-tetraisobutyl-4,6,10,16,18,22-hexamethyl-12,24-bis(4-(oxazol-4-ylmethyl)benzyl)-1,7,13,19-tetraoxa-4,10,16,22-tetraazacyclotetracosan-2,5,8,11,14,17,20,23-octaone], the minimal effective concentration with D. immitis L4 larvae is 0.0003 µM; in experiment [1], 0.0003 µM; in experiment [2] (setting [3]) it was less than 1 µM; in experiment [2] (setting [4]), 1 µM; in experiment [2] (setting [5]), no more than 1 µM. Further, in the experiment on D. immitis L4 larvae, the DiMf/DiL4 is reported as 1.
With `CC(C)C[C@H]1C(=O)O[C@H](Cc2ccc(Cc3ccc4cn[nH]c4c3)cc2)C(=O)N(C)[C@@H](CC(C)C)C(=O)O[C@H](C)C(=O)N(C)[C@@H](CC(C)C)C(=O)O[C@H](Cc2ccccc2)C(=O)N(C)[C@@H](CC(C)C)C(=O)O[C@H](C)C(=O)N1C` [Example 4-18, (3S,6R,9S,12R,15S,18R,21S,24R)-6-(4-((1H-indazol-6-yl)methyl)benzyl)-18-benzyl-3,9,15,21-tetraisobutyl-4,10,12,16,22,24-hexamethyl-1,7,13,19-tetraoxa-4,10,16,22-tetraazacyclotetracosan-2,5,8,11,14,17,20,23-octaone], the minimal effective concentration is 0.001 µM in the experiment with D. immitis L4 larvae, 0.05 µM in experiment [1] and greater than 10 µM in experiment [2] (setting [4]). In addition, the DiMf/DiL4 with D. immitis L4 larvae turned out to be 50.
Turning to `CC(C)C[C@H]1C(=O)O[C@H](Cc2ccc(Cc3cnn(CCF)c3)cc2)C(=O)N(C)[C@@H](CC(C)C)C(=O)O[C@H](C)C(=O)N(C)[C@@H](CC(C)C)C(=O)O[C@H](Cc2ccc(Cc3cnn(CCF)c3)cc2)C(=O)N(C)[C@@H](CC(C)C)C(=O)O[C@H](C)C(=O)N1C` [Example 3-286, (3S,6R,9S,12R,15S,18R,21S,24R)-6,18-bis(4-((1-(2-fluoroethyl)-1H-pyrazol-4-yl)methyl)benzyl)-3,9,15,21-tetraisobutyl-4,10,12,16,22,24-hexamethyl-1,7,13,19-tetraoxa-4,10,16,22-tetraazacyclotetracosan-2,5,8,11,14,17,20,23-octaone], the values for the minimal effective concentration (in the experiment on D. immitis L4 larvae; in experiment [1]; in experiment [2] (setting [4])) were 0.0005 µM, 0.03 µM and greater than 10 µM, respectively. The DiMf/DiL4 with D. immitis L4 larvae came to 60.
On to `CC(C)C[C@H]1C(=O)O[C@H](Cc2ccc(Cc3cncs3)cc2)C(=O)N(C)[C@@H](CC(C)C)C(=O)O[C@H](C)C(=O)N(C)[C@@H](CC(C)C)C(=O)O[C@H](Cc2ccc(Cc3cncs3)cc2)C(=O)N(C)[C@@H](CC(C)C)C(=O)O[C@H](C)C(=O)N1C` [Example 3-12, (3S,6R,9S,12R,15S,18R,21S,24R)-3,9,15,21-tetraisobutyl-4,6,10,16,18,22-hexamethyl-12,24-bis(4-(thiazol-5-ylmethyl)benzyl)-1,7,13,19-tetraoxa-4,10,16,22-tetraazacyclotetracosan-2,5,8,11,14,17,20,23-octaone], for which the minimal effective concentration in the experiment on D. immitis L4 larvae was 0.001 µM; in experiment [1], 0.0007 µM; in experiment [2] (setting [3]), 1 to 3.3 µM; in experiment [2] (setting [4]) it was 3.3 µM. The DiMf/DiL4 with D. immitis L4 larvae is 0.7.
As to `CC(C)C[C@H]1C(=O)O[C@H](Cc2ccc(Cc3cncnc3C(F)(F)F)cc2)C(=O)N(C)[C@@H](CC(C)C)C(=O)O[C@H](C)C(=O)N(C)[C@@H](CC(C)C)C(=O)O[C@H](Cc2ccc(Cc3cncnc3C(F)(F)F)cc2)C(=O)N(C)[C@@H](CC(C)C)C(=O)O[C@H](C)C(=O)N1C` [Example 3-318, (3S,6R,9S,12R,15S,18R,21S,24R)-3,9,15,21-tetraisobutyl-4,6,10,16,18,22-hexamethyl-12,24-bis(4-((4-(trifluoromethyl)pyrimidin-5-yl)methyl)benzyl)-1,7,13,19-tetraoxa-4,10,16,22-tetraazacyclotetracosan-2,5,8,11,14,17,20,23-octaone], the minimal effective concentration in the experiment with D. immitis L4 larvae amounted to 3e-05 µM; in experiment [1] it was 0.0003 µM; in experiment [2] (setting [4]), 0.55 µM. Moreover, the DiMf/DiL4 in the experiment on D. immitis L4 larvae is on record as 10.
On the same counts, the results for `CC(C)C[C@H]1C(=O)O[C@H](Cc2ccc(Cc3cccnc3C(F)(F)F)cc2)C(=O)N(C)[C@@H](CC(C)C)C(=O)O[C@H](C)C(=O)N(C)[C@@H](CC(C)C)C(=O)O[C@H](Cc2ccc(Cc3cccnc3C(F)(F)F)cc2)C(=O)N(C)[C@@H](CC(C)C)C(=O)O[C@H](C)C(=O)N1C` [Example 3-238, (3S,6R,9S,12R,15S,18R,21S,24R)-3,9,15,21-tetraisobutyl-4,6,10,16,18,22-hexamethyl-12,24-bis(4-((2-(trifluoromethyl)pyridin-3-yl)methyl)benzyl)-1,7,13,19-tetraoxa-4,10,16,22-tetraazacyclotetracosan-2,5,8,11,14,17,20,23-octaone] are 0.0001 µM, 0.002 µM, greater than 5 µM and 20.
